Three compounds from patent EP3345917A1, “ANTIPROTOZOAL COMPOUNDS” (Bacoba AG, priority 2017, dated 2018) can be followed below.

Non-standard residues stand in square brackets, D forms with d. Residues, ends and D or L forms follow the SMILES beside them. *: point of attachment. NH((S)CH(Me)CH2NMe2) = C[C@@H](CN(C)C)N*; Benzoyl(4-OMe) = COc1ccc(C(=O)*)cc1; Gly(octyl) = CCCCCCCC[C@H](N)C(=O)O; X15 = O=C(c1ccc2cccnc2c1)*; Aib = CC(C)(N)C(=O)O; Bz = O=C(c1ccccc1)*; βAla = NCCC(=O)O

What all share (assay type): cell-based
Assay [1] has as its system intracellular Leishmania donovani (L.don. InMac). Nature of the assay: Intracellular Leishmania donovani assay (L.don. InMac). To be noted: In vitro inhibition. The text has this:
(§1) Tests were done in triplicate.

For assay [2], the system named is Trypanosoma cruzi trypomastigote forms (Tulahuen strain). The experiment in a line: Intracellular Trypanosoma cruzi assay in L6-cells, beta-galactosidase/CPRG readout. To be noted: In vitro inhibition, read-out: T.cruzi. Summed up: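 Readout was β-galactosidase cleavage of CPRG, read photometrically at 540 nm after 2–6 h colour development, giving IC50 values. Parasites: LacZ-expressing Tulahuen C2C4 strain grown in rat L6 myoblasts; run in triplicate.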

The test system of assay [3] is Plasmodium falciparum. The experiment in a line: 3H-hypoxanthine incorporation assay against Plasmodium falciparum. To be noted: In vitro inhibition, read-out: P.falc NF5. The protocol:
as §1
IC50 values were calculated by linear interpolation.

The subject of assay [4] is Trypanosoma brucei rhodesiense (STIB 900 strain). The experiment in a line: Alamar Blue assay against Trypanosoma brucei rhodesiense grown in axenic medium. To be noted: In vitro inhibition, read-out: T.b.rhod. Summed up: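 Alamar Blue-based IC50 determination, in triplicate, on axenically grown STIB 900 trypanosomes. Melarsoprol included as reference.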
For assay [5], the system named is Axenically grown Leishmania donovani amastigotes (strain MHOM/ET/67/L82). The experiment in a line: Axenic Leishmania donovani amastigote resazurin assay. To be noted: In vitro inhibition, read-out: L.don. ax. Summed up: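 IC50 values derive from resazurin fluorescence (ex 536 nm, em 588 nm), expressed relative to the negative control, after 2-4 hours of plate development. Axenic amastigotes of strain MHOM/ET/67/L82 were used; each test run in triplicate.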

Take `CCCCCCCC[C@H](NC(=O)[C@@H]1CCCN1C(=O)c1ccccc1)C(=O)N[C@@H](CC(C)C)C(=O)NC(C)(C)C(=O)N[C@@H](CC(C)C)C(=O)N[C@@H](CC(C)C)C(=O)NC(C)(C)C(=O)NC(C)(C)C(=O)NCCC(=O)N[C@@H](C)CN(C)C` [Compound 5649, (2S)-2-{[(2S)-1-benzoylpyrrolidin-2-yl]formamido}-N-[(1S)-1-[(1-{[(1S)-1-{[(1S)-1-{[1-({1-[(2-{[(2S)-1-(dimethylamino)propan-2-yl]carbamoyl}ethyl)carbamoyl]-1-methylethyl}carbamoyl)-1-methylethyl]carbamoyl}-3-methylbutyl]carbamoyl}-3-methylbutyl]carbamoyl}-1-methylethyl)carbamoyl]-3-methylbutyl]decanamide] (Bz-P[Gly(octyl)]L[Aib]LL[Aib][Aib][βAla]-{NH((S)CH(Me)CH2NMe2)}): the IC50 in assay [1] came out at 27.2 nM; in assay [2] it was 8.8 nM; in assay [3], 2.1 nM; in assay [4] it was 0.7 nM; in assay [5], 3.5 nM.

With `CCCCCCCC[C@H](NC(=O)[C@@H]1CCCN1C(=O)c1ccc(OC)cc1)C(=O)N[C@@H](CC(C)C)C(=O)NC(C)(C)C(=O)N[C@@H](CC(C)C)C(=O)N[C@@H](CC(C)C)C(=O)NC(C)(C)C(=O)NC(C)(C)C(=O)NCCC(=O)N[C@@H](C)CN(C)C` [Compound 5912, (2S)-N-[(1S)-1-[(1-{[(1S)-1-{[(1S)-1-{[1-({1-[(2-{[(2S)-1-(dimethylamino)propan-2-yl]carbamoyl}ethyl)carbamoyl]-1-methylethyl}carbamoyl)-1-methylethyl]carbamoyl}-3-methylbutyl]carbamoyl}-3-methylbutyl]carbamoyl}-1-methylethyl)carbamoyl]-3-methylbutyl]-2-{[(2S)-1-(4-methoxybenzoyl)pyrrolidin-2-yl]formamido}decanamide] ({Benzoyl(4-OMe)}-P[Gly(octyl)]L[Aib]LL[Aib][Aib][βAla]-{NH((S)CH(Me)CH2NMe2)}), the IC50 amounted to 42600 nM in assay [1]; 17800 nM in assay [2]; 20900 nM in assay [3]; 0.3 nM in assay [4]; 41400 nM in assay [5].

As for `CCCCCCCC[C@H](NC(=O)[C@@H]1CCCN1C(=O)c1ccc2cccnc2c1)C(=O)N[C@@H](CC(C)C)C(=O)NC(C)(C)C(=O)N[C@@H](CC(C)C)C(=O)N[C@@H](CC(C)C)C(=O)NC(C)(C)C(=O)NC(C)(C)C(=O)NCCC(=O)N[C@@H](C)CN(C)C` [Compound 5938, (2S)-N-[(1S)-1-[(1-{[(1S)-1-{[(1S)-1-{[1-({1-[(2-{[(2S)-1-(dimethylamino)propan-2-yl]carbamoyl}ethyl)carbamoyl]-1-methylethyl}carbamoyl)-1-methylethyl]carbamoyl}-3-methylbutyl]carbamoyl}-3-methylbutyl]carbamoyl}-1-methylethyl)carbamoyl]-3-methylbutyl]-2-{[(2S)-1-(quinoline-7-carbonyl)pyrrolidin-2-yl]formamido}decanamide] (X15-P[Gly(octyl)]L[Aib]LL[Aib][Aib][βAla]-{NH((S)CH(Me)CH2NMe2)}), the IC50 was determined as 37.8 nM in assay [1]; 42400 nM in assay [2]; 13200 nM in assay [3]; 0.5 nM in assay [4]; 42400 nM in assay [5].
